# Source: patent publication US20250290928A1, “METHOD, KIT AND DEVICE FOR DETECTING EXTRACELLULAR VESICLES” (priority 2022, published 2025)
# No end group written: not given here. *: point of attachment. 5FAM = O=C1OC2(c3ccc(O)cc3Oc3cc(O)ccc32)c2ccc(C(=O)*)cc21; TQ2 = quencher
# Legend:
# [1] = system: MMP in the MDA-MB-231-derived extracellular vesicles; assay: Digital detection of MDA-MB-231-derived extracellular vesicles through MMP activity in wells (SB substrates); assay type: biochemical, Human; settings: for Expected value λ / Number of positives / Positive ratio: 6 h; for Extracellular vesicle concentration / Expected value λ (×1): Example 35, 6 h; for Extracellular vesicle concentration: at a concentration of x1, 50 fL; for Expected value λ (×1): from power approximation equation
# Method: The concentration of the solution is 10 μg/mL. […] The solution was further diluted 2-fold to prepare a standard sample at a concentration of x1/4, further diluted 3-fold to prepare a standard sample at a concentration of x1/12, and further diluted 3-fold to prepare a standard sample at a concentration of x1/36. Thus, the standard samples with four concentrations were prepared.
# In addition, 1 mM Alexa Fluor 647 was used as a standard fluorescent substance, and each of the MMP14 detection solutions contained the standard fluorescent substance at a final concentration of 2 μM.
# (§1) 50 μL of each of the MMP detection solutions was added to 50 μL of each of the samples, a reaction was performed at 30° C., and MMP activity was evaluated.
# [2] = system: MMP in the A549-derived extracellular vesicles; assay: Digital detection of A549-derived extracellular vesicles through MMP activity in wells (SB substrates); assay type: biochemical, Human; settings: for Extracellular vesicle concentration: at a concentration of x1, 50 fL; for Expected value λ / Number of positives / Positive ratio: Example 36, EV 5 μg/mL, reporter 5 μM, 30° C.
# Method: (§2) The concentration of the solution is 10 μg/mL.
# 50 μL of each of the MMP detection solutions was added to 50 μL of the sample to provide a reaction solution for wells.
# [3] = system: MMP in the MDA-MB-231-derived extracellular vesicles; assay: Evaluation of MMP activity of MDA-MB-231-derived extracellular vesicles with 96-well plate (SensoLyte 520 MMP Substrate Sampler Kit); assay type: biochemical, Human; settings: for Fluorescence change after 1 hour of reaction at 30° C.: Example 34, EV 4 μg/mL, reporter 5 μM, buffer (4); for Fluorescence change after 2 hours of reaction at 30° C.: MP, EV 3.3 μg/mL
# Method: (§3) 50 μL of the MMP detection solution was added to 50 μL of each of the samples, a reaction was performed at 30° C., and MMP activity was evaluated.
# as §1
# [4] = system: MMP in the A549-derived extracellular vesicles; assay: Evaluation of MMP activity of A549-derived extracellular vesicles with 96-well plate (SensoLyte 520 MMP Substrate Sampler Kit); assay type: biochemical, Human; settings: Example 34, EV 4 μg/mL, reporter 5 μM, buffer (4)
# Method: The MMP14 activity was evaluated with a 96-well plate (manufactured by Thermo Fisher Scientific Inc., model number: 137101). A fluorescence intensity was measured with a fluorescence plate reader (Synergy MX, manufactured by BioTek Instruments, Inc.) at […] every 5 min for 1 hour. For measurement wavelengths, an excitation wavelength of 485±20 nm and a fluorescence wavelength of 528±20 nm were used.
# as §3
# [5] = biological target: T1, MMP14 in the MDA-MB-231-derived extracellular vesicles (Homo sapiens, UniProt P50281); assay: Evaluation of MMP14 activity of MDA-MB-231-derived extracellular vesicles with 96-well plate; assay type: biochemical
# T1 construct: in terms of intact MMP14 with a molecular weight of 70 kDa
# Method: A relative fluorescence unit difference ΔRFU was calculated by subtracting the measured value of the sample for BG measurement from the measured value of each of the samples.
# The concentration of the solution is 41.7 μg/mL. The concentration of the solution was set to x1, and 2-fold serial dilution was performed to prepare standard samples with six concentrations.
# 50 μL of the MMP14 detection solution was added to 50 μL of each of the samples, a reaction was performed at 37° C., and MMP14 activity was evaluated.
# as §2
# 50 μL of each of the MMP14 detection solutions was added to 50 μL of each of the samples, a reaction was performed at 37° C., and MMP14 activity was evaluated. […]
# The concentration of the solution is 20 μg/mL. The concentration of the solution was set to x1, and 3-fold serial dilution was performed to prepare standard samples with three concentrations.
# The concentration of the solution is 8 μg/mL.
# 50 μL of each of the MMP14 detection solutions was added to 50 μL of the sample, a reaction was performed at 37° C., and MMP14 activity was evaluated. […]
# 50 μL of the MMP14 detection solution was added to 50 μL of each of the samples, a reaction was performed at 30° C., and MMP14 activity was evaluated.
# The MMP14 activity of the extracellular vesicles was evaluated with a 96-well plate (137101). A fluorescence intensity was measured with a fluorescence plate reader (Synergy) at 30° C. every 5 minutes for 2 hours. For measurement wavelengths, an excitation wavelength of 545±20 nm and a fluorescence wavelength of 588±20 nm were used. A relative fluorescence unit difference (ΔRFU) was calculated by subtracting the measured value of the sample for BG measurement from the measured value of each of the samples.
# 50 μL of each of the MMP14 detection solutions was added to 50 μL of each of the samples, a reaction was performed at 30° C., and MMP14 activity was evaluated.
# [6] = biological target: T1, MMP14 in the MDA-MB-231-derived extracellular vesicles; assay: Digital detection of MDA-MB-231-derived extracellular vesicles through MMP14 activity in wells (microcompartments); assay type: biochemical; settings: for Extracellular vesicle concentration: at a concentration of x1, 50 fL; for Expected value λ / Number of positives / Positive ratio: Example 38, EV 2.5 μg/mL, reporter 5 μM, 30° C.
# Method: The concentration of the solution is 6.7 μg/mL.
# 100 μL of the MMP14 detection solution was added to 100 μL of the sample to provide a reaction solution for wells. […] 100 μL of 200 μL of the prepared reaction solution for wells was used in the measurement of MMP14 activity with a 96-well plate.
# Next, the wells were filled with the reaction solution by leaving the well array 200 to stand under reduced pressure to degas the space 205. After that, the space 205 was fed with hydrophobic solvents to be sealed. Fluorinated oils AsahiKlin AE-3000 (manufactured by AGC Inc.) and Fomblin Y-25 (manufactured by Solvay S.A.) were used as the hydrophobic solvents. A fluorinated oil Simoa (trademark) SR-X Sealing Oil: 102767 (manufactured by Quanterix Corporation) was further used as another hydrophobic solvent.
# Well diameter: 4.25 μm Well depth: 3.25 μm Well capacity: 50 fL Number of wells in array: 239,000 Array range: 3 mm×4 mm
# The concentration of the solution is 20 μg/mL. […] The concentration of the solution was set to x1, and 10-fold serial dilution was performed to prepare standard samples with five concentrations.
# Next, the wells were filled with the reaction solution by leaving the well array 200 to stand under reduced pressure to degas the space 205. After that, the space 205 was fed with hydrophobic solvents to be sealed.
# The concentration of the solution is 20 μg/mL. […] The concentration of the solution was set to x1, and 3-fold serial dilution was performed to prepare standard samples with three concentrations.
# The concentration of the solution is 20 μg/mL. […] The concentration of the solution was set to x1, and 2-fold serial dilution was performed to prepare standard samples with four concentrations.
# The concentration of the solution is 5 μg/mL.
# 50 μL of the MMP14 detection solution was added to 50 μL of the sample to provide a reaction solution for wells.
# 50 μL of each of the MMP14 detection solutions was added to 50 μL of the sample to provide a reaction solution for wells.
# The concentration of the solution is 6.7 µg/mL.
# [7] = Example 35, 30° C., EV 0 (free of extracellular vesicles, pseudopositive)
# [8] = Example 35, 30° C., EV 1/4 a.u.
# [9] = Example 35, 30° C., EV 1/12 a.u.
# [10] = Example 35, 30° C., EV 1/36 a.u.
# [11] = Example 35, reporter 5 μM, 30° C., EV 1/2 a.u. (5 μg/mL in reaction solution)
# [12] = 1.25 μM with 1.25 μM Custom #2T
Substance,"Expected value λ [1, 7]","Number of positives [1, 7]","Positive ratio [1, 7]","Expected value λ [1, 8]","Number of positives [1, 8]","Positive ratio [1, 8]","Expected value λ [1, 9]","Number of positives [1, 9]","Positive ratio [1, 9]","Expected value λ [1, 10]","Number of positives [1, 10]","Positive ratio [1, 10]",Extracellular vesicle concentration [1],Expected value λ (×1) [1],"Expected value λ [1, 11]","Number of positives [1, 11]","Positive ratio [1, 11]","Expected value λ (×1) ([2]; Example 36, 4 hr)","Extracellular vesicle concentration ([2]; Example 36, 4 hr)","Expected value λ (×1) ([2]; Example 36, 24 hr)",also measured
QXL520-Arg-Pro-Leu-Ala-Leu-Trp-Arg-Lys(5-FAM)-NH2 (QXL520-RPLALWRK(5FAM)-NH2) [SB9],3.56E−05,1,3.56E−05,0.2881,"7,010",0.2503,0.01591,442,0.01579,0.01251,349,0.01243,4.7e+10 mL⁻¹,2.3593,0.9949,"17,697",0.6302,0.1169,2.338e+09 mL⁻¹,0.01093,"Extracellular vesicle concentration ([2]; Example 36, 24 hr): 2.185e+08 mL⁻¹; Expected value λ ([2]; 4 hr): 0.05844; Number of positives ([2]; 4 hr): 1,594; Positive ratio ([2]; 4 hr): 0.05677; Expected value λ ([2]; 24 hr): 0.00546; Number of positives ([2]; 24 hr): 153; Positive ratio ([2]; 24 hr): 0.00545; Fluorescence change after 1 hour of reaction at 30° C. [3]: 62,330 ΔRFU; Fluorescence change after 2 hours of reaction at 30° C. [3, 12]: 39,228 ΔRFU; Fluorescence change after 2 hours of reaction at 30° C. ([3]; 5 μM with 5 μM Custom #2T): 40,247 ΔRFU; Fluorescence change after 1 hour of reaction at 30° C. [4]: 1,775 ΔRFU"
QXL520-Pro-Leu-Ala-Leu-Trp-Ala-Arg-Lys(5-FAM)-NH2 (QXL520-PLALWARK(5FAM)-NH2) [SB2],3.56E−05,1,3.56E−05,0.3545,"8,382",0.2985,0.1011,"2,699",0.09612,0.02931,811,0.02888,5.3e+10 mL⁻¹,2.6406,1.326,"20,623",0.7344,0.1343,2.685e+09 mL⁻¹,0.00799,"Extracellular vesicle concentration ([2]; Example 36, 24 hr): 1.599e+08 mL⁻¹; Expected value λ ([2]; 4 hr): 0.06712; Number of positives ([2]; 4 hr): 1,823; Positive ratio ([2]; 4 hr): 0.06492; Expected value λ ([2]; 24 hr): 0.004; Number of positives ([2]; 24 hr): 112; Positive ratio ([2]; 24 hr): 0.00399; Fluorescence change after 1 hour of reaction at 30° C. [3]: 32,088 ΔRFU; Fluorescence change after 2 hours of reaction at 30° C. [3, 12]: 21,733 ΔRFU; Fluorescence change after 2 hours of reaction at 30° C. ([3]; 5 μM with 5 μM Custom #2T): 31,832 ΔRFU; Fluorescence change after 1 hour of reaction at 30° C. [4]: 1,154 ΔRFU"
TQ2-YPPRPLLARK(5-FAM) (TQ2-YPPRPLLARK(5FAM)) [Custom #15],–,–,–,–,–,–,–,–,–,–,–,–,–,–,–,–,–,–,–,–,"Fluorescence change after 2 hours of reaction at 30° C. ([5]; Example 37, EV 5 μg/mL, reporter 5 μM, buffer (4)): 16,774 ΔRFU; Fluorescence change after 2 hours of reaction at 30° C. ([5]; MP, 1.25 μM with 5 μM Custom #2TF3): 9,131 ΔRFU; Fluorescence change after 2 hours of reaction at 30° C. ([5]; MP, 2.5 μM with 2.5 μM Custom #2TF3): 10,890 ΔRFU; Expected value λ (×1) ([6]; Example 38, 4 hr): 0.4993; Extracellular vesicle concentration ([6]; Example 38, 4 hr): 9.986e+09 mL⁻¹; Expected value λ (×1) ([6]; Example 38, 24 hr): 1.145; Extracellular vesicle concentration ([6]; Example 38, 24 hr): 2.289e+10 mL⁻¹; Expected value λ ([6]; 4 hr): 0.1248; Number of positives ([6]; 4 hr): 3,295; Positive ratio ([6]; 4 hr): 0.1173; Expected value λ ([6]; 24 hr): 0.2862; Number of positives ([6]; 24 hr): 6,988; Positive ratio ([6]; 24 hr): 0.2489"
